In patent publication US5451506A, “Oncostatin M and novel compositions having anti-neoplastic activity” (Oncogen Limited Partnership, priority 1993, dated 1995):

T1: Oncostatin M receptor on A375 or A549 cells (Homo sapiens, UniProt P40189+Q99650)
T1 construct: endogenous in cells; host or cells: A375 or A549 cells (intact monolayers)
T1 sequence (Q99650 28-979): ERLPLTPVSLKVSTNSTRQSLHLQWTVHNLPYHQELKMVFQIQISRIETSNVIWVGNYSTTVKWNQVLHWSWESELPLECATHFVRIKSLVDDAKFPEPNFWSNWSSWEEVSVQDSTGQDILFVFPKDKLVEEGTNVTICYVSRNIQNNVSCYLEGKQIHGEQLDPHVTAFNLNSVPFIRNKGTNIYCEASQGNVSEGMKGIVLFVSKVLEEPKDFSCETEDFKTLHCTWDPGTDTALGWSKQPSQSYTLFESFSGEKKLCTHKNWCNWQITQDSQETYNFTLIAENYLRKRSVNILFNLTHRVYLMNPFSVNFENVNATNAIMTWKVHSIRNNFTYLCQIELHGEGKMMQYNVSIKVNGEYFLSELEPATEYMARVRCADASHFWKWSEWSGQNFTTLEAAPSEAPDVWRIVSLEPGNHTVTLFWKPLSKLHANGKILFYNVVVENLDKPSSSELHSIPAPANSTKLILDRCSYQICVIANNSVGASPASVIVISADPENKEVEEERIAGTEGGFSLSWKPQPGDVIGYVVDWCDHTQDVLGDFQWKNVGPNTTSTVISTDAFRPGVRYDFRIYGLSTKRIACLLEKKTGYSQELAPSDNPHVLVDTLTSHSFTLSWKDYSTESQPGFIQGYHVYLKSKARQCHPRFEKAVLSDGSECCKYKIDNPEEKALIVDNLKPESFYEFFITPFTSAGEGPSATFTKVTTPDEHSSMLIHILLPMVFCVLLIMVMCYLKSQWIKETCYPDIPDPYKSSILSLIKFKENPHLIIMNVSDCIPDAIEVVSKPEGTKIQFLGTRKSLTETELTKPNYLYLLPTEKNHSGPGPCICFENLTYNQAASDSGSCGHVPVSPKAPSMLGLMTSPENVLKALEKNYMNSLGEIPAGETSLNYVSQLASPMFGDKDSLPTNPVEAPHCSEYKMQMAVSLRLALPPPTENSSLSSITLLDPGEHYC
T1 sequence (P40189 23-918): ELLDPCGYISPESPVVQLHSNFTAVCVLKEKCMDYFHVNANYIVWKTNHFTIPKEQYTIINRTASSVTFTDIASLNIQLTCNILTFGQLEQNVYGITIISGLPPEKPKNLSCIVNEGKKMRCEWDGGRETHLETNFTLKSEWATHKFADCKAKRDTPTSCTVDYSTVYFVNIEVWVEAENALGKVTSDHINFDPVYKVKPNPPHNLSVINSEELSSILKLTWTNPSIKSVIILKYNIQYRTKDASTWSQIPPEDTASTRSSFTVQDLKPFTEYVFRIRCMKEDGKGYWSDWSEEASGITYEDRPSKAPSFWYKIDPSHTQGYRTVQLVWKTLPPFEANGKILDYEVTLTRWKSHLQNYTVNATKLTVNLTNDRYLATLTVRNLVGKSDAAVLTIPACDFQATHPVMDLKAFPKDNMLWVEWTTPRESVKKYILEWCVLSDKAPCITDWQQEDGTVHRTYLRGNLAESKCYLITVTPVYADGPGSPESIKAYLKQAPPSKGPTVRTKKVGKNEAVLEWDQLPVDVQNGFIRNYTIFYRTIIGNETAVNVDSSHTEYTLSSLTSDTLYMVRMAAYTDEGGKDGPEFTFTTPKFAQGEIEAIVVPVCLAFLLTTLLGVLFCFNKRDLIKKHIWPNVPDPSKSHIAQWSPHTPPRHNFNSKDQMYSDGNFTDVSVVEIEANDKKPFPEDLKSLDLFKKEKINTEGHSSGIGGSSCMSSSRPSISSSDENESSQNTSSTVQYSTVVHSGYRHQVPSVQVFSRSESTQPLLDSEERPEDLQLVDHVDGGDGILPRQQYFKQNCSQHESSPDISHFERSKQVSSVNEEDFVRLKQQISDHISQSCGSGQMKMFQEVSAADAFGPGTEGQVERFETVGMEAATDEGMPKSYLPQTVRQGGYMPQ

B1: PBL-derived Oncostatin M: Oncostatin M isolated from conditioned medium of activated human T-lymphoblasts, approximately 80% pure (protein, UniProt P13725 26-221, looked up)
Oncostatin-M: AAIGSCSKEYRVLLGQLQKQTDLMQDTSRLLDPYIRIQGLDVPKLREHCRERPGAFPSEETLRGLGRRGFLQTLNATLGCVLHRLADLEQRLPKAQDLERSGLNIEDLEKLQMARPNILGLRNNIYCMAQLLDNSDTAEPTKAGRGASQPPTPTPASDAFQRKLEGCRFLHGYHRFMHSVGRVFSKWGESPNRSRR

Tests used:
A375 melanoma cells = assay: Cell growth modulatory assay using 3H-thymidine incorporation into DNA (GIA); type: cell-based, human; set-up: Observed % Inhibition of 3H-TdR Incorporation: concentration or dose not given beside the values; settings: A375 Cells
Protocol: (§1) The assays were performed in 96 flat well plates (Costar 3596). Human melanoma cells (A375) (3×10^3 /100 μl) or cells from another cell line of interest were at an appropriate cell density used. Cells in 100 μl growth medium were placed in each well. Three hours later, 100 μl of test sample in growth medium was added to each well. Plates were incubated at 37° C. for 3 days. Then 25 μl (0.5 μCi) of a solution of ^3 H-thymidine (specific activity 27 μCi/μg) was added to each well for the final 6 hours of incubation. The cells were then transferred to glass filter strips using a multiwell harvester (PHD Cell Harvester, Cambridge Technology, Inc.). The filters were transferred to scintillation vials. Two ml of scintillation fluid (ScientiVerse II, Fisher Scientific Co.) was added and the samples counted in a scintillation counter to quantitate ^3 H-thymidine incorporation.

MCF-7 breast tumor cells = assay: Inhibition of 3H-TdR incorporation, Oncostatin M and TNF-α; type: cell-based, human; settings: MCF-7 Cells
Protocol: as §1
Inhibition of ^3 H-TdR incorporation into A375 cells and MCF-7 cells were compared using the assay described in Example 1B, above. The cells were treated with either Oncostatin M alone, TNF-α (Amgen Biologicals, human recombinant TNF-α) alone, or with a combination of Oncostatin M and TNF-α.

[1] = molecular target: T1, Oncostatin M receptor on A375 or A549 cells; assay: Specificity of Oncostatin M receptor: competition for binding of 125I-Oncostatin M; settings: competitor 20 μg/ml; 125I-Oncostatin M 30-50 ng/ml
Protocol: The cell line of interest was plated in 48-well plates at a density of 2×10^5 cells/well and maintained at 37° C. for 16-24 hours before initiation of the assay. Cell monolayers were then washed once with Binding buffer (Linsley et al., Biochemistry (1986) 25:2978-2986). To measure total binding, ^125 I-Oncostatin M was added at concentrations ranging from 0.5-100 ng/ml. To measure non-specific binding, unlabeled Oncostatin M was added simultaneously with the ^125 I-Oncostatin M to replicate plates at a concentration 20- to 100-fold higher than the concentration of ^125 I-Oncostatin M. Binding was allowed to proceed for 2-5 hours at 23°, then the monolayers were washed four times with Binding Buffer, cell-bound radioactivity was solubilized with 1N NaOH and was counted in a gamma counter. Specific binding was calculated by subtracting the non-specific binding from total binding. The dissociation constant (Kd) and binding capacity was determined by Scatchard analysis (Scatchard, Ann. N.Y. Acad. Sci. (1949) 51:660).
The specificity of the Oncostatin M receptor was determined by evaluating the ability of several other polypeptide growth factors to compete for binding of ^125 I-Oncostatin M (at 30-50 ng/ml) to A375 or A549 cells.

Mouse L929 cells = assay: Effect on mouse L929 cells; type: cell-based; settings: up to 1000 GIA units/ml
Protocol: (§2) The ability of PBL-derived Oncostatin M to affect replication of a variety of cells was also investigated. Mouse L929 cells were insenstive to PBL-derived Oncostatin M using up to 1000 GIA units/ml. Growth of human fibroblasts, WI26, was stimulated by treatment with 1000 GIA units/ml. Normal human T-lymphocyte proliferation at 72 hours post mitogenesis was not affected by up to 500 GIA units/ml.

WI26 fibroblasts = assay: Cell growth modulatory assay using 3H-thymidine incorporation into DNA (GIA); type: cell-based, human; settings: 1000 GIA units/ml
Protocol: as §1
Human tumor cells (A375 melanoma cells, A549 lung cancer cells, HBT10 neuroblastoma cells, and SK-MEL28 melanoma cells) were seeded at 3×10^3 cells/well and normal fibroblasts (WI26 cells and WI38 cells) at 1.5×10^3 cells/well in 96-well plates. Various concentrations of purified Oncostatin M, obtained from the fraction from the C18^3 column with peak antiproliferative activity against A375 cells were used. The assay was performed as described in Example 1B above.

[2] = tested on: Normal human T-lymphocyte; assay: Normal human T-lymphocyte proliferation post mitogenesis; type: cell-based; settings: 72 hours post mitogenesis, up to 500 GIA units/ml
Protocol: as §2

| Molecule | Observed % Inhibition of 3H-TdR Incorporation (A375 melanoma cells) [%] | Observed % Inhibition of 3H-TdR Incorporation (MCF-7 breast tumor cells) [%] | Inhibitory activity towards binding of 125I-Oncostatin M [1] | Replication of mouse L929 cells (Mouse L929 cells) | Growth of human fibroblasts WI26 (WI26 fibroblasts) | Normal human T-lymphocyte proliferation [2] |
| --- | --- | --- | --- | --- | --- | --- |
| TNF-α | 7 | 30 | None of these showed significant inhibitory activity |  |  |  |
| B1 |  |  |  | insenstive | stimulated | not affected |
